Assay results as given in publication PMC9718795, “Caffeic acid N-[3,5-bis(trifluoromethyl)phenyl] amide as a non-steroidal inhibitor for steroid 5α-reductase type 1 using a human keratinocyte cell-based assay and molecular dynamics” (Scientific Reports, 2022).

How the values were obtained:
[1] = test system: dermal papilla (DP) cells; experiment: In vitro cytotoxic MTT assay against DP cells; type: cell-based, human; conditions: 0.5–50 µM, 24 h
Method: The cytotoxicity of caffeic acid and its amide derivatives were evaluated with two cell lines, human keratinocyte (HaCaT) and DP cells, using the common cell viability assay with MTT. HaCaT and DP cells were seeded at 1 × 10^4 cell/well in 96-well plates in a complete DMEM medium, incubated overnight, and treated with test compounds at 0–50 µM for 24 h. The stock solutions of all the test compounds were prepared in DMSO. Each compound was serially diluted in DMEM to achieve concentrations at 0.5–50 µM; DMEM was used as the negative control. After 24 h of treatment, the culture medium was removed, and cell viability was determined by adding 100 µL of 0.5 mg/mL MTT at 37 °C in darkness for 3 h. After removing the MTT solution, 100 µL of DMSO was added to each well to dissolve the purple formazan crystals. The absorbance was measured at 570 nm using a microplate reader, and the IC50 value was calculated. Each experiment was performed in triplicates.

[2] = test system: SRD5A1 protein expression; experiment: Western blot of SRD5A1 protein expression in HaCaT cells; type: cell-based, human
Method: HaCaT cells (1 × 10^5 cells/well in 6-well plates) were cultured in DMEM with or without compound 4 (0–2.5 µM) for 12 and 24 h. The cells were lysed with RIPA buffer containing 1% protease inhibitor and 1% phosphatase inhibitor on ice for 45 min. Then, the total protein from each sample was determined by bicinchoninic acid (BCA) protein assay kit (Cat No. 23225, Thermo Fisher Scientific, Rockford, IL, USA). The equal amount (40 µg) of protein sample was mixed with loading buffer and heated at 95 °C for 5 min before loaded to 10% sodium dodecyl sulfate–polyacrylamide gels (SDS-PAGE). The proteins were transferred onto PVDF membrane, which was further blocked with 5% BSA in TBST (25 mmol/L Tris–HCl; pH 7.4, 125 mmol/L NaCl, 0.1% Tween 20) at room temperature for 1 h. The primary antibody specific to SRD5A1 (1TFS-AB-PA575919, Thermo Fisher Scientific, Rockford, IL, USA) in dilution 1:1000 was added onto the membrane and incubated overnight at 4 °C. Then the membrane was washed 3 times × 7 min with TBST following with the immersion in the specific secondary antibody conjugated with horseradish peroxidase (HRP) for 1 h at room temperature. The signal of target protein was determined by using chemiluminescence HRP substrate (Thermo Scientific, Rockford, IL, USA) and the intensity of target protein was analyzed by analyst/PC densitometric software (Bio-Rad, Hercules, CA, USA).

`O=C(C=Cc1ccc(O)c(O)c1)Nc1cc(C(F)(F)F)cc(C(F)(F)F)c1` [Compound 4, 3-(3,4-dihydroxyphenyl)-N-[3,5-bis (trifluoromethyl)phenyl]-2-propenamide] was tested, and the “Toxicity against DP cells” value [1] was “no toxicity”, the “Suppression of SRD5A1 protein expression relative to untreated control” value ([2]; 2.5 µM, 24 h) was over 50% and the “SRD5A1 protein expression relative to control” value ([2]; 1 and 2.5 µM, 24 h) was “significant decrease”. For the same molecule, the “SRD5A1 protein level relative to control” value ([2]; 12 h) was “no significant changes”.
